Data reported in the NIST ThermoML archive (doi:10.1021/je050165t).
Numbers after ± are expanded uncertainties.

Details: 101 kPa, Liquid

CCCCn1cc[n+](C)c1.F[P-](F)(F)(F)(F)F [1-butyl-3-methylimidazolium hexafluorophosphate]
mass density (298.15 K): 1366.66 ± 3.1 kg/m3
speed of sound (298.15 K): 1442.4 ± 6.3 m/s
mass density (303.15 K): 1362.4 ± 3.1 kg/m3
speed of sound (303.15 K): 1430.6 ± 6.3 m/s
mass density (308.15 K): 1358.3 ± 3.1 kg/m3
speed of sound (308.15 K): 1419 ± 6.3 m/s
mass density (313.15 K): 1354.19 ± 3 kg/m3
speed of sound (313.15 K): 1407.5 ± 6.2 m/s
mass density (318.15 K): 1350.08 ± 3 kg/m3
speed of sound (318.15 K): 1396.3 ± 6.2 m/s
